Laboratory results: US4762648A, “Monofunctional and bisfunctional anthraquinone-(oxy-2,3-oxidopropanes), processes for their preparation, and their use as drugs” (Hoechst Aktiengesellschaft, priority 1983, dated 1988)
≈ marks a conversion by molar mass, not a printed value.

Legend:
[1] = Determination of acute toxicity, intraperitoneal; conditions: mouse, in vivo, ip, NMRI mice, day 14, Litchfield Wilcoxon
Protocol: To determine the acute toxicity, NMRI mice were injected intraperitoneally,on day 0, with different doses of the test substance suspended in 0.5 ml of 0.5% strength carboxymethylcellulose. Control groups were given solely 0.5 ml of carboxymethylcellulose solution. 5 Mice were employed per concentration of test substance. On day 14, the number of surviving mice is determined and the LD50 found therefrom by the Litchfield Wilcoxon method.

L 1210 leukemia cells [2] = assay: Colony formation of L 1210 leukemia cells in soft agar (stem cell assay); assay type: cell-based; conditions: Mus musculus
Protocol: In this test, cytostatically active substances produce a reduction of the number of colonies observed relative to an untreated control. Specifically, the test is carried out as follows:
500 Leukemia cells per plate are incubated with different concentrations of test substance for 1 hour at 37° C. The cells are then washed twice with McCoy 5a medium and finally, after addition of 0.3% of agar, poured out into Petri dishes. Controls are incubated with fresh medium only. In place of the 1-hour incubation, different concentrations of the test substance are in some cases mixed into the upper agar layer so as to achieve continuous exposure of the cells over the entire incubation period. After the agar has solidified, the plates are incubated in an incubating chamber for 7 days at 37° C. (5% CO2, 95% relative atmospheric humidity). Thereafter, the number of colonies formed which have a diameter of 60μ is counted. The results are quoted as the number of colonies in the treated agar plates expressed as a percentage of those in the untreated control. From the dose/effect curve thus obtained, the IC50 is determined and serves as a measure of the effectiveness of the substance.

L 1210 leukemia cells [3] = assay: Proliferation assay: incorporation of C-14-thymidine in L 1210 cells; assay type: cell-based; conditions: Mus musculus, read-out: Proliferation assay IC50
Protocol: The determination of the cytotoxic activity of the compounds described in the present patent is carried out on L 1210 leukemia cells of the mouse. Specifically, the following test systems were used:
In this in vitro method, after incubation of the cells with varying concentrations of the test substance a determination is carried out of the extent to which the cells can incorporate radioactively labelled DNA-precursors (for example C-14-labelled thymidine).
L 1210 Cells in the exponential growth phase (5×10^3 /ml in RPMI 1640) are incubated for 72 hours, in a microtitration plate, with different concentrations of the test substance (37° C., 5% CO2, 95% relative atmospheric humidity). Controls consist of cells which are incubated solely with fresh medium. All assays are carried out in quadruplicate. After 65 hours, 50 μl of C-14-thymidine (1.5 μc/ml) are added in order to radioactively label the DNA of the cell. After 7 hours' incubation, the cells are filtered off with suction, and the DNA is precipitated with 5% strength dichloroacetic acid and successively washed with water and methanol. After drying at 50° C., the radioactivity built into the DNA is determined after adding 5 ml of scintillation fluid.
The results are quoted as a ratio of the scintillation indices obtained after incubation with the test substance and obtained with the untreated control. From the measurements thus obtained, the dose/effect curve is determined and the IC50, i.e. the concentration which under test conditions reduces the incorporation of radioactive thymidine by 50% relative to the control, is determined graphically.

[4] = L1210, 168 h, L 1210 colony formation in soft agar, continuous exposure, 7 days, read-out: Stem cell assay IC50, Incubation: Continuous
[5] = L1210, L 1210 colony formation in soft agar, 1 hour incubation, 7 days, read-out: Stem cell assay IC50, Incubation: 1 hour
[6] = L1210, L 1210 cells, 72 hours, C-14-thymidine incorporation

| SMILES | LD50 at 336 h [1] | IC50 (L 1210 leukemia cells [2]; L1210, 168 h, read-out: Stem cell assay IC50, Incubation: Continuous) | IC50 (L 1210 leukemia cells [2]; L1210, read-out: Stem cell assay IC50, Incubation: 1 hour) | IC50 (L 1210 leukemia cells [3]; L1210, 72 h) | IC50 (L 1210 leukemia cells [2]; [4]) | IC50 (L 1210 leukemia cells [2]; [5]) | IC50 (L 1210 leukemia cells [3]; [6]) |
| --- | --- | --- | --- | --- | --- | --- | --- |
| COc1cccc2c1C(=O)c1c(O)c3c(c(O)c1C2=O)C[C@@](O)(C(=O)CO)C[C@@H]3O[C@H]1C[C@H](N)[C@H](O)[C@H](C)O1 [Adriamycin, reference compound] | 14 mg/kg | 0.02 µg/mL (≈ 0.0368 µM) | 0.044 µg/mL (≈ 0.081 µM) | 0.006 µg/mL (≈ 0.011 µM) | – | – | – |
| O=C1c2ccccc2C(=O)c2c(OCC3CO3)ccc(O)c21 (centres unmarked) [Example 3, 1-Hydroxy-anthraquinone-4-(oxy-2,3-oxido-propane)] | – | – | – | – | 0.03 µg/mL (≈ 0.101 µM) | 0.066 µg/mL (≈ 0.223 µM) | 0.028 µg/mL (≈ 0.0945 µM) |
| O=C1c2ccccc2C(=O)c2c(OCC3CO3)ccc(OCC3CO3)c21 (centres unmarked) [Example 4, Anthraquinone-1,4-bis-(oxy-2,3-oxido-propane)] | – | – | – | – | 0.0033 µg/mL (≈ 0.00937 µM) | 0.004 µg/mL (≈ 0.0114 µM) | 0.0022 µg/mL (≈ 0.00624 µM) |
| O=C1c2ccc(OCC3CO3)cc2C(=O)c2ccc(OCC3CO3)cc21 (centres unmarked) [Example 5, Anthraquinone-2,6-bis(oxy-2,3-oxido-propane)] | 200 mg/kg | – | – | 0.0044 µg/mL (≈ 0.0125 µM) | 0.01 µg/mL (≈ 0.0284 µM) | 0.0083 µg/mL (≈ 0.0236 µM) | – |
| O=C1c2cccc(OCC3CO3)c2C(=O)c2c(OCC3CO3)cccc21 (centres unmarked) [Example 8, Anthraquinone-1,8-bis-(oxy-2,3-oxido-propane)] | – | – | – | – | 0.0085 µg/mL (≈ 0.0241 µM) | 0.03 µg/mL (≈ 0.0851 µM) | 0.028 µg/mL (≈ 0.0795 µM) |
